Laboratory results as given in ChEMBL document CHEMBL1139089, “The evaluation and structure-activity relationships of 2-benzoylaminobenzoic esters and their analogues as anti-inflammatory and anti-platelet aggregation agents” (Bioorg Med Chem Lett, 2007).

assay: Antiinflammatory activity in neutrophil assessed as inhibition of fMLP induced elastase release; format: functional, cell-based; details: Homo sapiens

`COC(=O)c1cccc(Cl)c1NC(=O)c1ccccc1OC` and `COC(=O)c1cccc(Cl)c1NC(=O)c1ccccc1C` cannot be ordered by IC50: > 40 µM for the first, > 40 µM for the second.

`COC(=O)c1ccccc1NC(=O)c1ccc(Cl)cc1` and `COC(=O)c1ccccc1NC(=O)c1ccc(C)cc1` cannot be ordered by IC50: > 40 µM for the first, > 40 µM for the second.

`CCOC(=O)c1ccc(Cl)cc1NC(=O)c1ccccc1Br` and `CCOC(=O)c1ccc(Cl)cc1NC(=O)c1ccccc1Cl` cannot be ordered by IC50: > 40 µM for the first, > 40 µM for the second.

`CCCOC(=O)c1ccc(Cl)cc1NC(=O)c1ccccc1F` and `CCCOC(=O)c1ccc(Cl)cc1NC(=O)c1ccccc1Cl` cannot be ordered by IC50: > 40 µM for the first, > 40 µM for the second.

`COC(=O)c1c(Cl)cccc1NC(=O)c1ccccc1F` and `COC(=O)c1cccc(Cl)c1NC(=O)c1ccccc1F` cannot be ordered by IC50: > 40 µM for the first, > 40 µM for the second.

Going from `CCOC(=O)c1ccc(Cl)cc1NC(=O)c1ccccc1C` to `COC(=O)c1ccc(Cl)cc1NC(=O)c1ccccc1C`, the IC50 rises from 2.83 µM to > 40 µM. The first is the more potent here.

`COC(=O)c1ccc(Cl)cc1NC(=O)c1ccc(C)cc1` and `COC(=O)c1ccc(Cl)cc1NC(=O)c1ccccc1OC` cannot be ordered by IC50: > 40 µM for the first, > 40 µM for the second.

`COC(=O)c1ccccc1NC(=O)c1cccc(Cl)c1` and `COC(=O)c1ccc(Cl)cc1NC(=O)c1ccccc1Cl` cannot be ordered by IC50: > 40 µM for the first, > 40 µM for the second.

`COc1ccc2c(c1)c(CC(=O)O)c(C)n2C(=O)c1ccc(Cl)cc1` [INDOMETHACIN] and `COC(=O)c1ccccc1NC(=O)c1ccc(OC)cc1` cannot be ordered by IC50: > 40 µM for the first, > 40 µM for the second.

`COC(=O)c1cccc(Cl)c1NC(=O)c1ccccc1Br` and `COC(=O)c1cccc(Cl)c1NC(=O)c1ccccc1Cl` cannot be ordered by IC50: > 40 µM for the first, > 40 µM for the second.

Compared with `CCOC(=O)c1ccccc1NC(=O)c1ccccc1F`, `COC(=O)c1ccccc1NC(=O)c1ccccc1C` is higher in IC50: 14.3 µM for the first, > 40 µM for the second. The first is the more potent here.

Compared with `CCOC(=O)c1ccc(Cl)cc1NC(=O)c1ccccc1OC`, `COC(=O)c1ccccc1NC(=O)c1ccccc1Br` is higher in IC50: 4.31 µM for the first, > 40 µM for the second.

With `O=S(=O)(F)Cc1ccccc1` [PHENYLMETHYLSULFONYLFLUORIDE] the IC50 was 131 µM.

assay: Anticoagulant activity assessed as inhibition of thrombin induced rabbit platelet aggregation; format: functional, cell-based; details: Oryctolagus cuniculus

`COC(=O)c1cccc(Cl)c1NC(=O)c1ccccc1OC` and `COC(=O)c1cccc(Cl)c1NC(=O)c1ccccc1C` cannot be ordered by IC50: > 100 µM for the first, > 100 µM for the second.

`COC(=O)c1ccccc1NC(=O)c1ccc(Cl)cc1` and `COC(=O)c1ccccc1NC(=O)c1ccc(C)cc1` cannot be ordered by IC50: > 100 µM for the first, > 100 µM for the second.

`CCOC(=O)c1ccc(Cl)cc1NC(=O)c1ccccc1Br` and `CCOC(=O)c1ccc(Cl)cc1NC(=O)c1ccccc1Cl` cannot be ordered by IC50: > 100 µM for the first, > 100 µM for the second.

`CCCOC(=O)c1ccc(Cl)cc1NC(=O)c1ccccc1F` and `CCCOC(=O)c1ccc(Cl)cc1NC(=O)c1ccccc1Cl` cannot be ordered by IC50: > 100 µM for the first, > 100 µM for the second.

`COC(=O)c1c(Cl)cccc1NC(=O)c1ccccc1F` and `COC(=O)c1cccc(Cl)c1NC(=O)c1ccccc1F` cannot be ordered by IC50: > 100 µM for the first, > 100 µM for the second.

`CCOC(=O)c1ccc(Cl)cc1NC(=O)c1ccccc1C` and `COC(=O)c1ccc(Cl)cc1NC(=O)c1ccccc1C` cannot be ordered by IC50: > 100 µM for the first, > 100 µM for the second.

`COC(=O)c1ccc(Cl)cc1NC(=O)c1ccc(C)cc1` and `COC(=O)c1ccc(Cl)cc1NC(=O)c1ccccc1OC` cannot be ordered by IC50: > 100 µM for the first, > 100 µM for the second.

`COC(=O)c1ccccc1NC(=O)c1cccc(Cl)c1` and `COC(=O)c1ccc(Cl)cc1NC(=O)c1ccccc1Cl` cannot be ordered by IC50: > 100 µM for the first, > 100 µM for the second.

`COc1ccc2c(c1)c(CC(=O)O)c(C)n2C(=O)c1ccc(Cl)cc1` [INDOMETHACIN] and `COC(=O)c1ccccc1NC(=O)c1ccc(OC)cc1` cannot be ordered by IC50: > 100 µM for the first, > 100 µM for the second.

`COC(=O)c1cccc(Cl)c1NC(=O)c1ccccc1Br` and `COC(=O)c1cccc(Cl)c1NC(=O)c1ccccc1Cl` cannot be ordered by IC50: > 100 µM for the first, > 100 µM for the second.

`CCOC(=O)c1ccccc1NC(=O)c1ccccc1F` and `COC(=O)c1ccccc1NC(=O)c1ccccc1C` cannot be ordered by IC50: > 100 µM for the first, > 100 µM for the second.

`CCOC(=O)c1ccc(Cl)cc1NC(=O)c1ccccc1OC` and `COC(=O)c1ccccc1NC(=O)c1ccccc1Br` cannot be ordered by IC50: > 100 µM for the first, > 100 µM for the second.

assay: Antiinflammatory activity in neutrophils assessed as inhibition of oxygen radical generation; format: functional, cell-based; details: Homo sapiens, Neutrophil

Compared with `c1ccc2c(c1)[I+]c1ccccc1-2` [DIPHENYLENEIODONIUM], `COC(=O)c1ccccc1NC(=O)c1ccccc1C` is 11-fold higher in IC50: 0.86 µM for the first, 9.26 µM for the second.

`COC(=O)c1cccc(Cl)c1NC(=O)c1ccccc1OC` and `COC(=O)c1cccc(Cl)c1NC(=O)c1ccccc1C` cannot be ordered by IC50: > 40 µM for the first, > 40 µM for the second.

`COC(=O)c1ccccc1NC(=O)c1ccc(Cl)cc1` and `COC(=O)c1ccccc1NC(=O)c1ccc(C)cc1` cannot be ordered by IC50: > 40 µM for the first, > 40 µM for the second.

`CCOC(=O)c1ccc(Cl)cc1NC(=O)c1ccccc1Br` and `CCOC(=O)c1ccc(Cl)cc1NC(=O)c1ccccc1Cl` cannot be ordered by IC50: > 40 µM for the first, > 40 µM for the second.

`CCCOC(=O)c1ccc(Cl)cc1NC(=O)c1ccccc1F` and `CCCOC(=O)c1ccc(Cl)cc1NC(=O)c1ccccc1Cl` cannot be ordered by IC50: > 40 µM for the first, > 40 µM for the second.

`COC(=O)c1c(Cl)cccc1NC(=O)c1ccccc1F` and `COC(=O)c1cccc(Cl)c1NC(=O)c1ccccc1F` cannot be ordered by IC50: > 40 µM for the first, > 40 µM for the second.

`CCOC(=O)c1ccc(Cl)cc1NC(=O)c1ccccc1C` and `COC(=O)c1ccc(Cl)cc1NC(=O)c1ccccc1C` cannot be ordered by IC50: > 40 µM for the first, > 40 µM for the second.

`COC(=O)c1ccc(Cl)cc1NC(=O)c1ccc(C)cc1` and `COC(=O)c1ccc(Cl)cc1NC(=O)c1ccccc1OC` cannot be ordered by IC50: > 40 µM for the first, > 40 µM for the second.

`COC(=O)c1ccccc1NC(=O)c1cccc(Cl)c1` and `COC(=O)c1ccc(Cl)cc1NC(=O)c1ccccc1Cl` cannot be ordered by IC50: > 40 µM for the first, > 40 µM for the second.

`COc1ccc2c(c1)c(CC(=O)O)c(C)n2C(=O)c1ccc(Cl)cc1` [INDOMETHACIN] and `COC(=O)c1ccccc1NC(=O)c1ccc(OC)cc1` cannot be ordered by IC50: > 40 µM for the first, > 40 µM for the second.

`COC(=O)c1cccc(Cl)c1NC(=O)c1ccccc1Br` and `COC(=O)c1cccc(Cl)c1NC(=O)c1ccccc1Cl` cannot be ordered by IC50: > 40 µM for the first, > 40 µM for the second.

First: CCOC(=O)c1ccccc1NC(=O)c1ccccc1F
Second: COC(=O)c1ccccc1NC(=O)c1ccccc1Br
The IC50 of the first is 71-fold lower: 0.17 µM for the first, 12 µM for the second.

In the case of `CCOC(=O)c1ccc(Cl)cc1NC(=O)c1ccccc1OC`, the IC50 is reported as > 40 µM.

assay: Anticoagulant activity assessed as inhibition of arachidonic acid induced rabbit platelet aggregation; format: functional, cell-based; details: Oryctolagus cuniculus

Compared with `COC(=O)c1cccc(Cl)c1NC(=O)c1ccccc1OC`, `COC(=O)c1cccc(Cl)c1NC(=O)c1ccccc1C` is higher in IC50: 66.6 µM for the first, > 100 µM for the second. The first is the more potent here.

`COC(=O)c1ccccc1NC(=O)c1ccc(Cl)cc1` and `COC(=O)c1ccccc1NC(=O)c1ccc(C)cc1` cannot be ordered by IC50: > 100 µM for the first, > 100 µM for the second.

Compared with `CCOC(=O)c1ccc(Cl)cc1NC(=O)c1ccccc1Br`, `CCOC(=O)c1ccc(Cl)cc1NC(=O)c1ccccc1Cl` is 4.5-fold lower in IC50: 3.6 µM for the first, 0.8 µM for the second. The second is the more potent here.

Compared with `CCCOC(=O)c1ccc(Cl)cc1NC(=O)c1ccccc1F`, `CCCOC(=O)c1ccc(Cl)cc1NC(=O)c1ccccc1Cl` is 2.3-fold lower in IC50: 1.6 µM for the first, 0.7 µM for the second.

First: COC(=O)c1c(Cl)cccc1NC(=O)c1ccccc1F
Second: COC(=O)c1cccc(Cl)c1NC(=O)c1ccccc1F
The IC50 of the first is lower: 78.2 µM for the first, > 100 µM for the second. The first is the more potent here.

`CCOC(=O)c1ccc(Cl)cc1NC(=O)c1ccccc1C` and `COC(=O)c1ccc(Cl)cc1NC(=O)c1ccccc1C` are within 1.5-fold of each other in IC50: 4.9 µM for the first, 4.3 µM for the second.

Going from `COC(=O)c1ccc(Cl)cc1NC(=O)c1ccc(C)cc1` to `COC(=O)c1ccc(Cl)cc1NC(=O)c1ccccc1OC`, the IC50 falls from > 100 µM to 2.2 µM. The second is the more potent here.

Compared with `COC(=O)c1ccccc1NC(=O)c1cccc(Cl)c1`, `COC(=O)c1ccc(Cl)cc1NC(=O)c1ccccc1Cl` is lower in IC50: > 100 µM for the first, 1.1 µM for the second. The second is the more potent here.

Going from `COc1ccc2c(c1)c(CC(=O)O)c(C)n2C(=O)c1ccc(Cl)cc1` [INDOMETHACIN] to `COC(=O)c1ccccc1NC(=O)c1ccc(OC)cc1`, the IC50 rises from 0.14 µM to > 100 µM. The first is the more potent here.

`COC(=O)c1cccc(Cl)c1NC(=O)c1ccccc1Br` and `COC(=O)c1cccc(Cl)c1NC(=O)c1ccccc1Cl` cannot be ordered by IC50: > 100 µM for the first, > 100 µM for the second.

First: CCOC(=O)c1ccc(Cl)cc1NC(=O)c1ccccc1OC
Second: COC(=O)c1ccccc1NC(=O)c1ccccc1C
The IC50 of the first is 3.4-fold lower: 4.9 µM for the first, 16.6 µM for the second. The first is the more potent here.

With `COC(=O)c1ccccc1NC(=O)c1ccccc1Br` the IC50 was 22.9 µM.
